The source made the active and inactive calls.
How the values were obtained:
Troponin, cardiac muscle = Troponin, cardiac muscle (Homo sapiens, UniProt P19429+P45379+P63316); assay: Fluorescence-based biochemical high throughput dose response assay for activators of the calcium sensitivity of cardiac Regulated Thin Filaments (RTF). [Related pubchem assays (depositor defined):AID493008, AID493018, AID504382, AID504383]; format: protein-complex assay
[1] = cytotoxicity toward NIH3T3 fibroblasts, dose response, counter-screen, cell-based, ATP luminescence, mouse fibroblasts (AID 2010); format: functional;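 further: cells exposed to compound for about 90 hours before reading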
[2] = inhibitors of intracellular T. cruzi replication, confirmation, NIH3T3 host cells, beta-gal luminescence (AID 2044); format: functional, cell-based;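 further: intracellular parasites grown in NIH/3T3 mouse fibroblasts as host cells; luminescent beta-galactosidase reporter signal from transgenic T. cruzi replicating inside host cells; inhibitors lower the luminescence signal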
[3] = C. albicans growth with fluconazole, confirmation, fluorescence, retest (AID 2467); format: functional, cell-based
[4] = NIH-3T3 fibroblast cytotoxicity, dose response, cytotoxicity control, cell-based, fluorescence, Alamar Blue, secondary assay (AID 2327); format: functional;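 further: NIH-3T3 mouse fibroblasts cultured with fluconazole at 8 µg/mL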
[5] = biological target: T1, Type-1 angiotensin II receptor (Homo sapiens, UniProt P30556); assay: AT1 receptor antagonists, dose response, selectivity assay for APJ receptor antagonist project, cell-based, uHTS hits (AID 463214); format: functional;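 further: antagonist potency against angiotensin II stimulated AT1 response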
T1 sequence (P30556 whole entry): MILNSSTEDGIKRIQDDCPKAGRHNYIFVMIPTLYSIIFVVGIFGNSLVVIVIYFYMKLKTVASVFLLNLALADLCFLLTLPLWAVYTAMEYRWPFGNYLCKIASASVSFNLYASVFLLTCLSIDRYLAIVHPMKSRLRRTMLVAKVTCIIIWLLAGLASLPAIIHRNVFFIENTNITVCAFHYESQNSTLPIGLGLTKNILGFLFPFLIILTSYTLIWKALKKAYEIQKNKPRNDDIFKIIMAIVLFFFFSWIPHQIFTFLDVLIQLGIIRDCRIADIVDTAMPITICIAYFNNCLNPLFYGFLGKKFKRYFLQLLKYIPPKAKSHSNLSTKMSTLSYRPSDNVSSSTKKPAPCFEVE

Beta-galactosidase = Beta-galactosidase (Escherichia coli, UniProt Q8VNN2); assay: PubChem AID 485352; format: functional
[6] = biological target: T2, E3 ubiquitin-protein ligase XIAP (Homo sapiens, UniProt P98170); assay: Counter Screen using XIAP-Bir3 for Chemical Antagonists of Bir1/2 domains of IAP-family anti-apoptotic proteins. [Related pubchem assays (depositor defined):AID1018, AID1449, AID1514, AID1638, AID1749, AID1750, AID488957, AID488963]
[7] = biological target: T2, E3 ubiquitin-protein ligase XIAP; assay: XIAP antagonists, biochemical, IAP family, fluorescence polarization (AID 1018); format: functional
[8] = biological target: G-protein coupled receptor 55 (Homo sapiens, UniProt Q9Y2T6); assay: GPR55 antagonists blocking LPI-driven arrestin recruitment, primary screen, imaging, U2OS, beta-arrestin-GFP, LPI agonist (AID 2013); format: functional;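 further: antagonist potency measured as reduced agonist-driven arrestin aggregation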
[9] = biological target: T3, High affinity choline transporter 1 (Homo sapiens, UniProt Q9GZV3); assay: CHT inhibitors, dose response, cell-based, 5-point CRC, membrane potential dye (AID 504840); format: functional
T3 sequence (Q9GZV3 whole entry): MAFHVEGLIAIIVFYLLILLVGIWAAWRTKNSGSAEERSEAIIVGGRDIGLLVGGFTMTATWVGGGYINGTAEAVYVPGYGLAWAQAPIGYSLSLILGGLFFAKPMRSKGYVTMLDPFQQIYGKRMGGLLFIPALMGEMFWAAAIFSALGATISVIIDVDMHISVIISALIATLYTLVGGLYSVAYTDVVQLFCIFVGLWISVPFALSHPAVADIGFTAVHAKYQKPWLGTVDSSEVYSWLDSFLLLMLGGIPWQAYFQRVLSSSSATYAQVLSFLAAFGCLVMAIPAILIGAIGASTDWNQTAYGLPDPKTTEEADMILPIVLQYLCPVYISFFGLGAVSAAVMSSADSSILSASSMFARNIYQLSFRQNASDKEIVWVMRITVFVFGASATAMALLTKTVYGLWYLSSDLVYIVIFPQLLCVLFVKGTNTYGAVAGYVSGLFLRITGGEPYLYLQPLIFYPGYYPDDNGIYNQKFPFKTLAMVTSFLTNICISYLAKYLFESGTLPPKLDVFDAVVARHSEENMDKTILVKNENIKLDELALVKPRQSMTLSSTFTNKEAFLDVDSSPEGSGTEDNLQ

[10] = inhibitors of SNCA 5'UTR-driven reporter translation, confirmation, H4 neuroglioma cells, luminescence (AID 1988); format: functional, cell-based
Melanocortin receptor 4 = Melanocortin receptor 4 (Homo sapiens, UniProt P32245); format: functional, cell-based;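 further: Cell-based assay with luminescence read-out, confirmatory dose-response testing for agonist activity of biased ligands at MC4R; human U2OS cells with tagged receptor and beta-arrestin; potency of agonists that increase receptor coupling to beta-arrestin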
[11] = growth suppression of beta-catenin-knockout colon cells, dose response, cell-based, HCT116, human colon tumor (AID 1045); format: functional;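 further: HCT116 colon tumor cells with beta catenin knocked out; cells exposed to compound for 60 hours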
[12] = microbe, parasite or virus in culture; format: functional; conditions: Mycobacterium tuberculosis
[13] = growth suppression of PTEN-null colon cells, dose response, cell-based, HCT116 PTEN knockout (AID 1047); format: functional;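 further: HCT116 colon tumor cells with PTEN knocked out; cells exposed to compound for 60 hours before readout; potency for loss of cell viability measured by luminescence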
[14] = Luminescence Cell-Based Dose Response HTS to Identify Inhibitors of 5'UTR Stem-Loop Driven Prion Protein mRNA Translation in H4 Neuroglioblastoma Cells. [Related pubchem assays: 1827 (Project Summary), 1813 (Primary HTS)]; format: functional
[15] = biological target: T4, Ubiquitin-conjugating enzyme E2 N (Homo sapiens, UniProt P61088); format: functional;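 further: Dose-response confirmation in a TR-FRET assay detecting UBC13-driven polyubiquitin chain formation, inhibition measured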
T4 sequence (P61088 whole entry): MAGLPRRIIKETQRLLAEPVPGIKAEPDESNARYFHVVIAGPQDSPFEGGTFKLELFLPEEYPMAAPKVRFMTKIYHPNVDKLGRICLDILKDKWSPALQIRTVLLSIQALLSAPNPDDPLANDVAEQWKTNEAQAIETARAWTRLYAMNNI

Hexokinase = biological target: T5, Hexokinase (Trypanosoma brucei, UniProt Q38C41); assay: Confirmation assay for inhibitors of Trypanosoma brucei hexokinase 1-Analogue-first series. [Related pubchem assays (depositor defined):AID1430, AID1632, AID2516, AID2560, AID2579, AID2600, AID449725, AID492951]; format: functional
T5 sequence (Q38C41 whole entry): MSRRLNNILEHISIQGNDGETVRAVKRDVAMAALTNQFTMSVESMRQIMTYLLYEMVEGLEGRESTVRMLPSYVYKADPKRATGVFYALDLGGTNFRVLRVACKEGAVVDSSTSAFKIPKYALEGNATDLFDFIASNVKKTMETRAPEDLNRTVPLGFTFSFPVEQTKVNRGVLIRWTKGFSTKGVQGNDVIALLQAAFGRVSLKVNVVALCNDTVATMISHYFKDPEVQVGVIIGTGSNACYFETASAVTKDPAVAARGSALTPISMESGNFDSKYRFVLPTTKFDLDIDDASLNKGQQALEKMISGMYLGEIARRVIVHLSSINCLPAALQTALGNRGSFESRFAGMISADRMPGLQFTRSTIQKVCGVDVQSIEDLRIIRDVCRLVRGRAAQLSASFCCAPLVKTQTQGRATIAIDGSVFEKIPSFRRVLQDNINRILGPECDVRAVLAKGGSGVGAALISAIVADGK

[16] = biological target: T6, Rac GTPase-activating protein 1 (Homo sapiens, UniProt Q9H0H5); assay: MgcRacGAP GTPase-activating activity inhibitors, confirmation, biochemical, ADP Hunter fluorescence, primary and confirmatory (AID 624330); format: functional
T6 sequence (Q9H0H5 whole entry): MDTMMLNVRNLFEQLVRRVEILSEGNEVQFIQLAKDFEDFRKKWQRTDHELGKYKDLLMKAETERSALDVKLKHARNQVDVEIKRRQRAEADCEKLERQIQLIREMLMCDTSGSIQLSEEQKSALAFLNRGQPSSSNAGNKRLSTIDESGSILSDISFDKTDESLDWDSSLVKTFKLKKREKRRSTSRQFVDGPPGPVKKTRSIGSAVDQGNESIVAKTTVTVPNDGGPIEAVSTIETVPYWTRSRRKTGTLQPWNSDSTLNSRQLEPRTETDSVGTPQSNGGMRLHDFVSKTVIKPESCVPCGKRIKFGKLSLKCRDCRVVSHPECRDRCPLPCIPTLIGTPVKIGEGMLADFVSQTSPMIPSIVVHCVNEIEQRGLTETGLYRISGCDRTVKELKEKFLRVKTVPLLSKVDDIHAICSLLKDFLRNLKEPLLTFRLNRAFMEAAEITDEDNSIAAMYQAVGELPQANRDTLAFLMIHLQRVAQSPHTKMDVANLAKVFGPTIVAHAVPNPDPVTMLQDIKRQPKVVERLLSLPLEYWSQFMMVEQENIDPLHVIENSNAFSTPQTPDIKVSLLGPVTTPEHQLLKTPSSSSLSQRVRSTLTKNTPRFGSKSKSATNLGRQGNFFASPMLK

[17] = biological target: Glucose-6-phosphate 1-dehydrogenase (Homo sapiens, UniProt P11413); assay: human G6PD enzyme inhibitors, dose response, selectivity assay for P. falciparum G6PD inhibitor project, biochemical, fluorescence (AID 504792); format: functional
[18] = HeLa cell cytotoxicity, dose response, cytotoxicity control for MgcRacGAP inhibitor project (AID 624300); format: functional
[19] = biological target: DNA dC->dU-editing enzyme APOBEC-3A (Homo sapiens, UniProt P31941); assay: APOBEC3A DNA deaminase inhibitors, dose response, biochemical (AID 504722); format: functional
[20] = biological target: DNA dC->dU-editing enzyme APOBEC-3G (Homo sapiens, UniProt Q9HC16); assay: Dose Response confirmation of small molecule APOBEC3G DNA Deaminase Inhibitors via a fluorescence-based single-stranded DNA deaminase assay. [Related pubchem assays (depositor defined):AID493012, AID493028]; format: functional
Chain of DNA dC->dU-editing enzyme APOBEC-3G (Q9HC16 whole entry): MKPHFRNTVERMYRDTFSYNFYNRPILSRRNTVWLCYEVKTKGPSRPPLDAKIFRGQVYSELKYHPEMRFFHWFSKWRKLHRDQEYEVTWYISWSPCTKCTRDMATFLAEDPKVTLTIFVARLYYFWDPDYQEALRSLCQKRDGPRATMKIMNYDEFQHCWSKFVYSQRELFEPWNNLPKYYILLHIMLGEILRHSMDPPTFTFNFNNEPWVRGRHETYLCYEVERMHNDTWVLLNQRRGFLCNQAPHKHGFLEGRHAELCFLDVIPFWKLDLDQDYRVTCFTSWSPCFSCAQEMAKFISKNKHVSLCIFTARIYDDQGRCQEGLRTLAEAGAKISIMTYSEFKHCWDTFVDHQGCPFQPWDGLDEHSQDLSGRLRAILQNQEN

T2 sequence (P98170 whole entry): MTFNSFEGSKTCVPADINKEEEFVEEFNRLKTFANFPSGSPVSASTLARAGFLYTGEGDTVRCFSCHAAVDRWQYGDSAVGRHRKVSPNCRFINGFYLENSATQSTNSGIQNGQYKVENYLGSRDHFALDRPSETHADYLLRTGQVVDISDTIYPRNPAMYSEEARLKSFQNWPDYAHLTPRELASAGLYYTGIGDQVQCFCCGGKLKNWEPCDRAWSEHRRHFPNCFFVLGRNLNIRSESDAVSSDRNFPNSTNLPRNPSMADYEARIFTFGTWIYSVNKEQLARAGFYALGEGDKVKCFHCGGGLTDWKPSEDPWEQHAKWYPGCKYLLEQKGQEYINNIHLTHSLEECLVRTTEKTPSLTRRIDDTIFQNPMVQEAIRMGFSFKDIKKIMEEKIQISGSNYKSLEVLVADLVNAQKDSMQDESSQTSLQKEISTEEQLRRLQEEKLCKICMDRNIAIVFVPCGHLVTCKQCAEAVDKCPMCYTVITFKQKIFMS
Chain of Beta-galactosidase (Q8VNN2 whole entry): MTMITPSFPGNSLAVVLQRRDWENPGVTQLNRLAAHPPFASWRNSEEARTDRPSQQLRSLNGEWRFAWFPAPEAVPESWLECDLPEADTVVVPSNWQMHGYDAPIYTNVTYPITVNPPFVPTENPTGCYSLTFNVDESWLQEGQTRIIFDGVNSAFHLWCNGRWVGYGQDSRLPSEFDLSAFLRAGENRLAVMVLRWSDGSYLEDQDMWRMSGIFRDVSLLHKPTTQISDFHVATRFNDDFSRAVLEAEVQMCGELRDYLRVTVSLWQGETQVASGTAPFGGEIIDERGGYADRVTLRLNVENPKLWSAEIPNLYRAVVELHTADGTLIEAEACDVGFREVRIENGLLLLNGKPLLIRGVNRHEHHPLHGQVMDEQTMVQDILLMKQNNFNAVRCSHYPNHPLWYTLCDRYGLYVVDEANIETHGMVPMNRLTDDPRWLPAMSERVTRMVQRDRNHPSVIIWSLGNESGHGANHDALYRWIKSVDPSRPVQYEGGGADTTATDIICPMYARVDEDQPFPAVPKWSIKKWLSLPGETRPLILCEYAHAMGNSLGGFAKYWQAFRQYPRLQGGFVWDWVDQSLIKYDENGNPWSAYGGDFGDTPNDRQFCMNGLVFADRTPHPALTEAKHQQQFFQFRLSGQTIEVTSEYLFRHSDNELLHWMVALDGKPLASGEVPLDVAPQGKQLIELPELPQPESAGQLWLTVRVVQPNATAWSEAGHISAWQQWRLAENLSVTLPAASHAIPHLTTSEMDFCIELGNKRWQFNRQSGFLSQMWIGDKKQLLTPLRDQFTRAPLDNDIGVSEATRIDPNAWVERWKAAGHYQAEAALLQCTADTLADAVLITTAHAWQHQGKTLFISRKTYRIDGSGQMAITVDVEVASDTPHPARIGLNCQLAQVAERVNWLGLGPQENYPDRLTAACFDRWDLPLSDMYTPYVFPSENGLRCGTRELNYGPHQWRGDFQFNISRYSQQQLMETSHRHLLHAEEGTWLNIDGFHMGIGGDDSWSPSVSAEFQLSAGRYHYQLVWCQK
Chain of G-protein coupled receptor 55 (Q9Y2T6 whole entry): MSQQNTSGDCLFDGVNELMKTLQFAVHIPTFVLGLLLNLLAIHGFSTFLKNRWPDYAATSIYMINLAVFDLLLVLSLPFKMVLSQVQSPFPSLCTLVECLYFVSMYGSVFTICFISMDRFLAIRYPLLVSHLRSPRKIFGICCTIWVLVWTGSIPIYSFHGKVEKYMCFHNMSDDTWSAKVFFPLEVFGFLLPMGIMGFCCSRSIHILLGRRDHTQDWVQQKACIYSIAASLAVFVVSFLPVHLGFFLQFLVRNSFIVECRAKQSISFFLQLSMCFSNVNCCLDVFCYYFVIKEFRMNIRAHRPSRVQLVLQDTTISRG
Chain of DNA dC->dU-editing enzyme APOBEC-3A (P31941 whole entry): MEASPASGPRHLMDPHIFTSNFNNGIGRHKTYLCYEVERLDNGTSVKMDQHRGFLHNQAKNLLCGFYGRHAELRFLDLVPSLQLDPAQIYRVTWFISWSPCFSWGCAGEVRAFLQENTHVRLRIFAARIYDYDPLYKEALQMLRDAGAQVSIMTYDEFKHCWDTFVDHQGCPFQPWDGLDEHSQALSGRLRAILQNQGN
Chain of Melanocortin receptor 4 (P32245 whole entry): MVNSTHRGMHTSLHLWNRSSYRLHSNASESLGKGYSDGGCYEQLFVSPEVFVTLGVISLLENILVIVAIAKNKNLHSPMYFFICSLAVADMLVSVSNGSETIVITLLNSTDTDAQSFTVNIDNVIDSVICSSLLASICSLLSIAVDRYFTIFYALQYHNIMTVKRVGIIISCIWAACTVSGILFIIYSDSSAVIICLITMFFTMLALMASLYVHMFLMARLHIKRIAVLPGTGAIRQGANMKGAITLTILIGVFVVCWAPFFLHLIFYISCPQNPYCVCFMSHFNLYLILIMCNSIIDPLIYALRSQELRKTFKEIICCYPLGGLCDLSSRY
Chain of Glucose-6-phosphate 1-dehydrogenase (P11413 whole entry): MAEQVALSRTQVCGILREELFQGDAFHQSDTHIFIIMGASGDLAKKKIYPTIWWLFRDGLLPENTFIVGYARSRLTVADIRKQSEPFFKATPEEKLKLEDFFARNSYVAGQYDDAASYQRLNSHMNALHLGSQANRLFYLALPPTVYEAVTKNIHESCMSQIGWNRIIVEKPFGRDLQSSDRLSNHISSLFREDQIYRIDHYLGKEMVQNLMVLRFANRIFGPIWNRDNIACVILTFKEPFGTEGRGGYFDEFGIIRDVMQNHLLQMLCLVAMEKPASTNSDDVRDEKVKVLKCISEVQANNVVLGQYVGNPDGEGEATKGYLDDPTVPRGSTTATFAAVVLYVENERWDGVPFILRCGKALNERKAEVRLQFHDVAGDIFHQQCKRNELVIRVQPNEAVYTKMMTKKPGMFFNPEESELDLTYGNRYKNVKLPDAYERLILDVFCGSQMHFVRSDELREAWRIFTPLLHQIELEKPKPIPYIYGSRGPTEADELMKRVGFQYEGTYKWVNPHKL

Cc1cc(N2CCCC2)ccc1C=C(C#N)C#N
EC50 (Troponin, cardiac muscle): 4.16 µM (active)

CCCCCC1CCC(c2nnc(S)n2C)CC1 (stereo not drawn)
EC50 [1]: > 60 µM (not active) | EC50 [2]: 1.92 µM (active) | EC50 [3]: > 38 µM (not active) | EC50 [4]: > 150 µM (inactive) | IC50 [5]: > 40 µM (not active) | EC50 (Beta-galactosidase): > 40 µM (inactive)

COc1nc(NS(=O)(=O)c2ccc(C)cc2)nc(C)c1Cl
IC50 [6]: > 100 µM (inactive) | IC50 [7]: > 100 µM (not active)

O=C(Nc1ccccc1N1CCOCC1)c1cc(-c2ccncc2)nc2ccccc12
IC50 [8]: 4.89 µM (active)

O=C(O)CCN(Cc1ccccc1)S(=O)(=O)c1ccccc1Cl
IC50 [6]: > 100 µM (inactive) | IC50 [7]: > 100 µM (not active)

NNC(=O)COc1ccc(-c2[nH]nc(C(F)(F)F)c2-c2ccc(Br)cc2)c(O)c1
IC50 [8]: 1.7 µM (active)

Cc1cccc(OCc2nc(C#N)c(NCCN(C)C)o2)c1
IC50 [6]: > 100 µM (inactive) | IC50 [7]: > 100 µM (not active)

CCc1nnc(NS(=O)(=O)c2ccc(NC(=O)/C=C/c3ccccc3Cl)cc2)s1
IC50 [8]: 1.99 µM (active) | IC50 [9]: 13.8 µM (active)

COc1ccccc1NC(=O)CCC(=O)OCC(=O)c1ccc(C)c([N+](=O)[O-])c1
IC50 [5]: 33.7 µM (not active) | EC50 (Beta-galactosidase): > 40 µM (inactive)

O=C1c2ccsc2SCCN1Cc1ccc(F)cc1
EC50 (Troponin, cardiac muscle): > 71.5 µM (inactive)

O=C(Cc1ccccc1)NCC(=O)OCC(=O)c1ccc(Cl)c([N+](=O)[O-])c1
IC50 [5]: 9.37 µM (active) | EC50 (Beta-galactosidase): > 40 µM (inactive)

CN(C)CCCNC(=O)c1ccc(-c2nc(-c3ccc(Cl)cc3)cs2)cc1
EC50 [1]: 10.2 µM (active) | EC50 [10]: 9.67 µM (inconclusive) | EC50 [2]: 0.738 µM (active) | EC50 (Melanocortin receptor 4): > 9.91 µM (active) | EC50 [3]: 3.33 µM (active) | EC50 [11]: 2.25 µM (active) | CC50 [12]: 4.08 µM (active) | EC50 [4]: 44.4 µM (inconclusive) | IC50 [5]: 22.6 µM (not active) | EC50 [13]: 2.41 µM (active) | EC50 [14]: > 120 µM (not active) | IC50 [15]: > 20 µM (inactive) | EC50 (Beta-galactosidase): > 40 µM (inactive)

O=C(O)CCN1CCc2ccccc21
IC50 [6]: > 100 µM (inactive) | IC50 [7]: > 100 µM (not active)

Cc1cc(C)c2nc(NC(=O)C3CCCO3)sc2c1 (stereo not drawn)
EC50 (Troponin, cardiac muscle): > 71.5 µM (inactive)

O=C(Nc1cc(Cl)ccc1C(=O)O)c1ccc(-c2ccccc2)cc1
IC50 (Hexokinase): 22.3 µM (active)

Cc1ccc(-n2sc3cc(F)ccc3c2=O)c(C)c1
IC50 (Hexokinase): 4.77 µM (active) | IC50 [16]: 35.8 µM (active) | IC50 [17]: 9.17 µM (active) | CC50 [18]: 72.5 µM (active)

O=C(Cn1sc2ccccc2c1=O)Nc1ccc(I)cc1
IC50 (Hexokinase): 14.8 µM (active)

Sc1nnc(-c2ccncc2)n1/N=C/c1ccccc1
IC50 [19]: > 100 µM (inactive) | IC50 [16]: 51.9 µM (active) | IC50 [20]: 2.52 µM (active)

O=c1c(O)c(-c2ccc(O)c(O)c2)oc2cc(O)cc(O)c12 [QUERCETIN]
IC50 (Hexokinase): 22.4 µM (active)

Source: ChEMBL document CHEMBL1201862, “PubChem BioAssay data set” (2004)
